Each structure is given as a SMILES string.

The assay deals with T1, CDK2 (Homo sapiens, UniProt P24941).
T1 construct: High-Throughput Measurement of Cellular Endogenous CDK2; endogenous in cells; host or cells: OVCAR3
Description: Inhibition of CDK2: phospho-Rb (S807/811) HTRF measurement in OVCAR3 cells, 24 h. It counts as cell-based. To be noted: 24 h compound treatment, read-out: pRB_OVCAR3_24h. Put shortly:
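OVCAR3 cells, seeded overnight, were exposed to compounds at 0.3 to 10,000 nM for 24 h, then lysed. Rb S807/811 phosphorylation read by HTRF (665/620 nm ratio) after 4 h detection at room temperature; data normalized to DMSO and IC50 from four-parameter logistic fit.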
(In general: Time-resolved FRET reads energy transfer from a long-lived donor to a nearby acceptor.)
`Cn1nc(N2CCC(=O)NC2=O)c2ccc(C3CCN(Cc4ccc(S(=O)(=O)N5CCC(Nc6ncc(Cl)cn6)CC5)cc4)CC3)cc21` [Example 63, 1-(6-(1-(4-((4-((5-chloropyrimidin-2-yl)amino)piperidin-1-yl)sulfonyl)benzyl)-piperidin-4-yl)-1-methyl-1H-indazol-3-yl)dihydropyrimidine-2,4(1H,3H)-dione]: the IC50 is 1 to 100 nM.
The same measure for `O=C1CCC(Nc2ccc(N3CCN(CC4CCN(c5cccc(S(=O)(=O)N6CCC(Nc7ncc(C(F)(F)F)cn7)CC6)c5)CC4)CC3)cc2)C(=O)N1` (centres unmarked) [Example 133, 3-((4-(4-((1-(3-((4-((5-(trifluoromethyl)-pyrimidin-2-yl)amino)piperidin-1-yl)sulfonyl)phenyl)piperidin-4-yl)methyl)piperazin-1-yl)phenyl)amino)-piperidine-2,6-dione]: 100 to 500 nM; for `Cn1nc(N2CCC(=O)NC2=O)c2ccc(C3CCN(CC4CCN(c5ccc(S(=O)(=O)N6CCC(Nc7ncc(Cl)cn7)CC6)cc5)CC4)CC3)cc21` [Example 158, 1-(6-(1-((1-(4-((4-((5-chloropyrimidin-2-yl)amino)piperidin-1-yl)sulfonyl)phenyl)piperidin-4-yl)methyl)piperidin-4-yl)-1-methyl-1H-indazol-3-yl)dihydropyrimidine-2,4(1H,3H)-dione]: 500 to 2500 nM; for `Cn1nc(N2CCC(=O)NC2=O)c2ccc(N3C4CCC3CN(CC3CCN(c5cccc(S(=O)(=O)N6CCC(Nc7ncc(Cl)cn7)CC6)c5)CC3)C4)cc21` [Example 104, 1-(6-(3-((1-(3-((4-((5-chloropyrimidin-2-yl)amino)piperidin-1-yl)sulfonyl)phenyl)-piperidin-4-yl)methyl)-3,8-diaza-bicyclo[3.2.1]octan-8-yl)-1-methyl-1H-indazol-3-yl)dihydropyrimidine-2,4(1H,3H)-dione]: > 2500 nM.
The same measure for `CCOC(=O)C1(CN2CCC(c3ccc4c(N5CCC(=O)NC5=O)nn(C)c4c3)CC2)CCN(c2cccc(S(=O)(=O)N3CCC(Nc4ncc(Cl)cn4)CC3)c2)CC1` [Example 141, ethyl 1-(3-((4-((5-chloropyrimidin-2-yl)amino)piperidin-1-yl)sulfonyl)phenyl)-4-((4-(3-(2,4-dioxotetrahydropyrimidin-1(2H)-yl)-1-methyl-1H-indazol-6-yl)piperidin-1-yl)methyl)piperidine-4-carboxylate]: 500 to 2500 nM; for `Cn1nc(N2CCC(=O)NC2=O)c2ccc(C3CCN(CC4CCCN(c5cccc(S(=O)(=O)N6CCC(Nc7ncc(Cl)cn7)CC6)c5)CC4)CC3)cc21` (centres unmarked) [Example 136, 1-(6-(1-((1-(3-((4-((5-chloropyrimidin-2-yl)amino)piperidin-1-yl)sulfonyl)phenyl)-azepan-4-yl)methyl)piperidin-4-yl)-1-methyl-1H-indazol-3-yl)dihydropyrimidine-2,4(1H,3H)-dione]: 100 to 500 nM; for `Cn1nc(N2CCC(=O)NC2=O)c2ccc(C3CCN(C[C@@H]4CCCN4c4cc(S(=O)(=O)N5CCC(Nc6ncc(OC(F)F)cn6)CC5)ccc4C#N)CC3)cc21` [Example 256, (S)-4-((4-((5-(difluoromethoxy)pyrimidin-2-yl)amino)piperidin-1-yl)sulfonyl)-2-(2-((4-(3-(2,4-dioxotetrahydropyrimidin-1(2H)-yl)-1-methyl-1H-indazol-6-yl)piperidin-1-yl)methyl)pyrrolidin-1-yl)benzonitrile]: 100 to 500 nM.
On to `O=C1CCN(c2cncc3c(C4CCN(CC5CCN(c6cccc(S(=O)(=O)N7CCC(Nc8ncc(Cl)cn8)CC7)c6)CC5)CC4)cccc23)C(=O)N1` [Example 194, 1-(8-(1-((1-(3-((4-((5-chloropyrimidin-2-yl)amino)piperidin-1-yl)sulfonyl)phenyl)piperidin-4-yl)methyl)piperidin-4-yl)isoquinolin-4-yl)dihydropyrimidine-2,4(1H,3H)-dione], for which the IC50 fell in the range of 100 to 500 nM.
As for `Cn1nc(N2CCC(=O)NC2=O)c2ccc(C3CCN(Cc4cccc(S(=O)(=O)N5CC(Nc6ncc(C(F)(F)F)cn6)C5)c4)CC3)cc21` [Example 154, 1-(1-methyl-6-(1-(3-((3-((5-(trifluoromethyl)pyrimidin-2-yl)amino)azetidin-1-yl)sulfonyl)benzyl)piperidin-4-yl)-1H-indazol-3-yl)dihydropyrimidine-2,4(1H,3H)-dione], the figure is > 2500 nM; as for `Cn1nc(N2CCC(=O)NC2=O)c2ccc(N3CCC(CN4C5CCC4CN(c4cccc(S(=O)(=O)N6CCC(Nc7ncc(Cl)cn7)CC6)c4)C5)CC3)cc21` [Example 166, 1-(6-(4-((3-(3-((4-((5-chloropyrimidin-2-yl)amino)piperidin-1-yl)sulfonyl)phenyl)-3,8-diazabicyclo[3.2.1]octan-8-yl)methyl)piperidin-1-yl)-1-methyl-1H-indazol-3-yl)dihydropyrimidine-2,4(1H,3H)-dione], > 2500 nM; as for `O=C1CCC(N2Cc3cc(N4CCC(N5CC(Oc6cccc(S(=O)(=O)N7CCC(Nc8ncc(C(F)(F)F)cn8)CC7)c6)C5)CC4)ccc3C2=O)C(=O)N1` (centres unmarked) [Example 45, 3-(1-ox0-5-(4-(3-(3-((4-((5-(trifluoro-methyl)pyrimidin-2-yl)amino)piperidin-1-yl)sulfonyl)phenoxy)azetidin-1-yl)piperidin-1-yl)isoindolin-2-yl)piperidine-2,6-dione], 100 to 500 nM.
The same measure for `O=C1CCC(N2C(=O)c3cc(F)c(N4CCN(Cc5cccc(S(=O)(=O)N6CCC(Nc7ncc(C(F)(F)F)cn7)CC6)c5)CC4)cc3C2=O)C(=O)N1` (centres unmarked) [Example 72, 2-(2,6-dioxopiperidin-3-yl)-5-fluoro-6-(4-(3-((4-((5-(trifluoromethyl)pyrimidin-2-yl)amino)piperidin-1-yl)sulfonyl)benzyl)-piperazin-1-yl)isoindoline-1,3-dione]: 500 to 2500 nM; for `Cn1nc(N2CCC(=O)NC2=O)c2cc(F)c(N3CCN(CC4CCN(c5cccc(S(=O)(=O)N6CCC(Nc7ncc(C(F)(F)F)cn7)CC6)c5)CC4)CC3)cc21` [Example 110, 1-(5-fluoro-1-methyl-6-(4-((1-(3-((4-((5-(trifluoromethyl)pyrimidin-2-yl)amino)-piperidin-1 - yl)sulfonyl)phenyl)piperidin-4-yl)methyl)piperazin-1-yl)-1H-indazol-3-yl)dihydropyrimidine-2,4(1H,3H)-dione]: 100 to 500 nM; for `C[C@@H]1CN(CC2CCN(c3cccc(S(=O)(=O)N4CCC(Nc5ncc(Cl)cn5)CC4)c3)CC2)C[C@H](C)N1c1ccc2c(N3CCC(=O)NC3=O)nn(C)c2c1` [Example 127, 1-(6-((2S,6R)-4-((1-(3-((4-((5-chloro-pyrimidin-2-yl)amino)piperidin-1-yl)-sulfonyl)phenyl)piperidin-4-yl)methyl)-2,6-dimethylpiperazin-1-yl)-1-methyl-1H-indazol-3-yl)dihydropyrimidine-2,4(1H,3H)-dione]: 1 to 100 nM.
`Cn1nc(N2CCC(=O)NC2=O)c2ccc(C3CCN(CC4CCN(c5cccc(S(=O)(=O)N6CCC(Nc7ncc(OC8CC8)cn7)CC6)c5)CC4)CC3)cc21` [Example 252, 1-(6-(1-((1-(3-((4-((5-cyclopropoxypyrimidin-2-yl)amino)piperidin-1-yl)sulfonyl)phenyl)piperidin-4-yl)methyl)piperidin-4-yl)-1-methyl-1H-indazol-3-yl)dihydropyrimidine-2,4(1H,3H)-dione]: the IC50 was in the range of 100 to 500 nM.
As for `Cn1nc(N2CCC(=O)NC2=O)c2ccc(C3CCN(Cc4cccc(S(=O)(=O)N5CCC(Nc6ncc(C(F)(F)F)cn6)CC5)c4)CC3(F)F)cc21` (centres unmarked) [Example 3, 1-(6-(3,3-difluoro-1-(3-((4-((5-(trifluoromethyl)pyrimidin-2-yl)amino)-piperidin-1-yl)sulfonyl)benzyl)-piperidin-4-yl)-1-methyl-1H-indazol-3-yl)dihydropyrimidine-2,4(1H,3H)-dione], the figure is 100 to 500 nM; as for `Cn1nc(N2CCC(=O)NC2=O)c2ccc(C3CCN(C[C@H]4CCCCN4c4cccc(S(=O)(=O)N5CCC(Nc6ncc(OC(F)F)cn6)CC5)c4)CC3)cc21` [Example 260, (R)-1-(6-(1-((1-(3-((4-((5-(difluoromethoxy)pyrimidin-2-yl)amino)piperidin-1-yl)sulfonyl)phenyl)piperidin-2-yl)methyl)piperidin-4-yl)-1-methyl-1H-indazol-3-yl)dihydropyrimidine-2,4(1H,3H)-dione], 100 to 500 nM.
As for `CC1(C)C(=O)N(C2CCC(=O)NC2=O)c2cccc(C3CCN(CC4CCN(c5cc(S(=O)(=O)N6CCC(Nc7ncc(Cl)cn7)CC6)ccc5C#N)CC4)CC3)c21` (centres unmarked) [Example 207, 4-((4-((5-chloropyrimidin-2-yl)amino)piperidin-1-yl)sulfonyl)-2-(4-((4-(1-(2,6-dioxopiperidin-3-yl)-3,3-dimethyl-2-oxoindolin-4-yl)piperidin-1-yl)methyl)piperidin-1-yl)benzonitrile], the figure is 100 to 500 nM; as for `Cn1c(=O)n(C2CCC(=O)NC2=O)c2cccc(C3CCN(Cc4cc(S(=O)(=O)N5CCC(Nc6ncc(OC(F)F)cn6)CC5)ccc4C#N)CC3)c21` (centres unmarked) [Example 196, 4-((4-((5-(difluoromethoxy)pyrimidin-2-yl)amino)piperidin-1-yl)sulfonyl)-2-((4-(1-(2,6-dioxopiperidin-3-yl)-3-methyl-2-oxo-2,3-dihydro-1H-benzo[d]imidazol-4-yl)piperidin-1-yl)methyl)benzonitrile], 100 to 500 nM; as for `Cn1nc(N2CCC(=O)NC2=O)c2ccc(C3CCN(C[C@@H]4CCN(c5cccc(S(=O)(=O)N6CCC(Nc7ncc(Cl)cn7)CC6)c5)C4)CC3)cc21` [Example 135, (S)-1-(6-(1-((1-(3-((4-((5-chloropyrimidin-2-yl)amino)piperidin-1-yl)sulfonyl)phenyl)-pyrrolidin-3-yl)methyl)piperidin-4-yl)-1-methyl-1H-indazol-3-yl)dihydropyrimidine-2,4(1H,3H)-dione], 100 to 500 nM.

Source of the values: US20260167623A1 (NIKANG THERAPEUTICS, INC., priority 2022, published 2026).
